{"source": "patent US9707305B2", "about": "“Formulas for diagnosing and treating hormone-dependent cancers and cancers of the organs responsible for steroid hormone synthesis” (Commissariat à l'énergie atomique et aux énergies …, priority 2011, dated 2017)", "experiment": "Biodistribution of the nano-emulsion of Example 1.1 (radioactivity and fluorescence per organ)", "format": "in vivo", "protocol": "In the following examples, the radioactivity was counted with the TRiCarb Counter (Ref: Packard, Liquid Scintillation Analyzers; Models 2200CA).\nFluobeam 700 (Fluoptics) is the apparatus with which the whole of the organs from the biodistribution were analyzed in fluorescence as well as the one with which the biodistribution kinetics of the nano-emulsions were established in vivo. This imaging system allows viewing of the fluorescence in spectral bands from 700 to 850 nm for a 650 nm excitation. The apparatus consists of an electric case containing the laser of class 3B, its power supply and an optical head containing the CCD camera.\nThe nano-emulsions of Example 1 were injected into FVB female and male mice. As a comparison, a mixture of three tracers ([3H]CHE, [14C]CO and DiD) (not formulated as a nano-emulsion) was injected in order to observe the distribution of the tracers in the absence of droplets being used as a distribution carrier.\nTables 6 to 14 provide the biodistribution results of each tracer ([3H]CHE, [14C]CO and DiD) expressed as a percentage of the dose injected per gram of tissue (or [3H]CHE and [14C]CO) or as fluorescence intensity (for DiD) depending on the organ of the mouse, 15 minutes (Table 6), 2 hours (Table 7), 4 hours (Table 8), 6 hours (Table 9), 16 hours (Table 10), 24 hours (Table 11), 72 hours (Table 12), 120 hours (Table 13) and 168 hours (Table 14), after injection into an FVB female mouse of the nano-emulsion of Example 1.1. (nano-emulsion according to the invention comprising the three tracers ([3H]CHE, [14C]CO and DiD).", "key": {"[1]": {"conditions": "2 h after injection of nano-emulsion of Example 1.1, FVB female mouse"}, "[2]": {"conditions": "4 h after injection of nano-emulsion of Example 1.1, FVB female mouse"}, "[3]": {"conditions": "16 h (Table 9 head) after injection of nano-emulsion of Example 1.1, FVB female mouse"}, "[4]": {"conditions": "24 h (Table 10 head) after injection of nano-emulsion of Example 1.1, FVB female mouse"}, "[5]": {"conditions": "48 h (Table 11 head) after injection of nano-emulsion of Example 1.1, FVB female mouse"}, "[6]": {"conditions": "72 h after injection of nano-emulsion of Example 1.1, FVB female mouse"}, "[7]": {"conditions": "120 h after injection of nano-emulsion of Example 1.1, FVB female mouse"}}}
{"smiles": "CCCCCCCC/C=C\\CCCCCCC[14C](=O)O[C@H]1CC[C@@]2(C)C(=CC[C@H]3[C@@H]4CC[C@H]([C@H](C)CCCC(C)C)[C@@]4(C)CC[C@@H]32)C1", "note": "[[14C]CO, cholesteryl oleate]", "values": [{"measurement": "biodistribution, Lung (MEAN)", "setting": "[1]", "value": "4.42 % of injected dose per gram of"}, {"measurement": "biodistribution, Muscle (MEAN)", "setting": "[1]", "value": "0.48 % of injected dose per gram of"}, {"measurement": "biodistribution, Ovary (MEAN)", "setting": "[1]", "value": "22.72 % of injected dose per gram of"}, {"measurement": "biodistribution, Pancreas (MEAN)", "setting": "[1]", "value": "1.68 % of injected dose per gram of"}, {"measurement": "biodistribution, Salivary glands (MEAN)", "setting": "[1]", "value": "1.74 % of injected dose per gram of"}, {"measurement": "biodistribution, Spleen (MEAN)", "setting": "[1]", "value": "2.87 % of injected dose per gram of"}, {"measurement": "biodistribution, Uterus (MEAN)", "setting": "[1]", "value": "2.21 % of injected dose per gram of"}, {"measurement": "biodistribution, Adrenal glands (MEAN)", "setting": "[2]", "value": "21.37 % of injected dose per gram of"}, {"measurement": "biodistribution, Brain (MEAN)", "setting": "[2]", "value": "0.23 % of injected dose per gram of"}, {"measurement": "biodistribution, Fat (MEAN)", "setting": "[2]", "value": "1.46 % of injected dose per gram of"}, {"measurement": "biodistribution, Heart (MEAN)", "setting": "[2]", "value": "3.75 % of injected dose per gram of"}, {"measurement": "biodistribution, Intestine (MEAN)", "setting": "[2]", "value": "1.80 % of injected dose per gram of"}, {"measurement": "biodistribution, Kidney (MEAN)", "setting": "[2]", "value": "2.27 % of injected dose per gram of"}, {"measurement": "biodistribution, Liver (MEAN)", "setting": "[2]", "value": "13.69 % of injected dose per gram of"}, {"measurement": "biodistribution, Lungs (MEAN)", "setting": "[2]", "value": "3.09 % of injected dose per gram of"}, {"measurement": "biodistribution, Muscle (MEAN)", "setting": "[2]", "value": "0.38 % of injected dose per gram of"}, {"measurement": "biodistribution, Ovary (MEAN)", "setting": "[2]", "value": "25.14 % of injected dose per gram of"}, {"measurement": "biodistribution, Pancreas (MEAN)", "setting": "[2]", "value": "1.17 % of injected dose per gram of"}, {"measurement": "biodistribution, Salivary glands (MEAN)", "setting": "[2]", "value": "1.47 % of injected dose per gram of"}, {"measurement": "biodistribution, Spleen (MEAN)", "setting": "[2]", "value": "1.97 % of injected dose per gram of"}, {"measurement": "biodistribution, Uterus (MEAN)", "setting": "[2]", "value": "1.39 % of injected dose per gram of"}, {"measurement": "biodistribution, Adrenal glands (MEAN)", "setting": "[3]", "value": "30.64 % of injected dose per gram of"}, {"measurement": "biodistribution, Brain (MEAN)", "setting": "[3]", "value": "0.13 % of injected dose per gram of"}, {"measurement": "biodistribution, Fat (MEAN)", "setting": "[3]", "value": "8.06 % of injected dose per gram of"}, {"measurement": "biodistribution, Heart (MEAN)", "setting": "[3]", "value": "2.00 % of injected dose per gram of"}, {"measurement": "biodistribution, Intestine (MEAN)", "setting": "[3]", "value": "2.53 % of injected dose per gram of"}, {"measurement": "biodistribution, Kidney (MEAN)", "setting": "[3]", "value": "1.75 % of injected dose per gram of"}, {"measurement": "biodistribution, Liver (MEAN)", "setting": "[3]", "value": "8.68 % of injected dose per gram of"}, {"measurement": "biodistribution, Lungs (MEAN)", "setting": "[3]", "value": "2.80 % of injected dose per gram of"}, {"measurement": "biodistribution, Muscle (MEAN)", "setting": "[3]", "value": "1.59 % of injected dose per gram of"}, {"measurement": "biodistribution, Ovary (MEAN)", "setting": "[3]", "value": "21.45 % of injected dose per gram of"}, {"measurement": "biodistribution, Pancreas (MEAN)", "setting": "[3]", "value": "1.19 % of injected dose per gram of"}, {"measurement": "biodistribution, Salivary glands (MEAN)", "setting": "[3]", "value": "2.02 % of injected dose per gram of"}, {"measurement": "biodistribution, Spleen (MEAN)", "setting": "[3]", "value": "1.89 % of injected dose per gram of"}, {"measurement": "biodistribution, Uterus (MEAN)", "setting": "[3]", "value": "2.76 % of injected dose per gram of"}, {"measurement": "biodistribution, Adrenal glands (MEAN)", "setting": "[4]", "value": "13.05 % of injected dose per gram of"}, {"measurement": "biodistribution, Brain (MEAN)", "setting": "[4]", "value": "0.11 % of injected dose per gram of"}, {"measurement": "biodistribution, Fat (MEAN)", "setting": "[4]", "value": "2.28 % of injected dose per gram of"}, {"measurement": "biodistribution, Heart (MEAN)", "setting": "[4]", "value": "1.31 % of injected dose per gram of"}, {"measurement": "biodistribution, Intestine (MEAN)", "setting": "[4]", "value": "1.22 % of injected dose per gram of"}, {"measurement": "biodistribution, Kidney (MEAN)", "setting": "[4]", "value": "1.03 % of injected dose per gram of"}, {"measurement": "biodistribution, Liver (MEAN)", "setting": "[4]", "value": "5.39 % of injected dose per gram of"}, {"measurement": "biodistribution, Lung (MEAN)", "setting": "[4]", "value": "1.30 % of injected dose per gram of"}, {"measurement": "biodistribution, Muscle (MEAN)", "setting": "[4]", "value": "1.01 % of injected dose per gram of"}, {"measurement": "biodistribution, Ovary (MEAN)", "setting": "[4]", "value": "9.58 % of injected dose per gram of"}, {"measurement": "biodistribution, Pancreas (MEAN)", "setting": "[4]", "value": "0.67 % of injected dose per gram of"}, {"measurement": "biodistribution, Salivary glands (MEAN)", "setting": "[4]", "value": "1.76 % of injected dose per gram of"}, {"measurement": "biodistribution, Spleen (MEAN)", "setting": "[4]", "value": "1.10 % of injected dose per gram of"}, {"measurement": "biodistribution, Uterus (MEAN)", "setting": "[4]", "value": "0.96 % of injected dose per gram of"}, {"measurement": "biodistribution, Adrenal glands (MEAN)", "setting": "[5]", "value": "10.83 % of injected dose per gram of"}, {"measurement": "biodistribution, Brain (MEAN)", "setting": "[5]", "value": "0.11 % of injected dose per gram of"}, {"measurement": "biodistribution, Fat (MEAN)", "setting": "[5]", "value": "3.46 % of injected dose per gram of"}, {"measurement": "biodistribution, Heart (MEAN)", "setting": "[5]", "value": "0.87 % of injected dose per gram of"}, {"measurement": "biodistribution, Intestine (MEAN)", "setting": "[5]", "value": "1.01 % of injected dose per gram of"}, {"measurement": "biodistribution, Kidney (MEAN)", "setting": "[5]", "value": "0.77 % of injected dose per gram of"}, {"measurement": "biodistribution, Liver (MEAN)", "setting": "[5]", "value": "1.53 % of injected dose per gram of"}, {"measurement": "biodistribution, Lungs (MEAN)", "setting": "[5]", "value": "1.28 % of injected dose per gram of"}, {"measurement": "biodistribution, Muscle (MEAN)", "setting": "[5]", "value": "0.34 % of injected dose per gram of"}, {"measurement": "biodistribution, Ovary (MEAN)", "setting": "[5]", "value": "6.46 % of injected dose per gram of"}, {"measurement": "biodistribution, Pancreas (MEAN)", "setting": "[5]", "value": "0.70 % of injected dose per gram of"}, {"measurement": "biodistribution, Salivary glands (MEAN)", "setting": "[5]", "value": "1.20 % of injected dose per gram of"}, {"measurement": "biodistribution, Spleen (MEAN)", "setting": "[5]", "value": "1.03 % of injected dose per gram of"}, {"measurement": "biodistribution, Uterus (MEAN)", "setting": "[5]", "value": "1.24 % of injected dose per gram of"}, {"measurement": "biodistribution, Adrenal glands (MEAN)", "setting": "[6]", "value": "9.36 % of injected dose per gram of"}, {"measurement": "biodistribution, Brain (MEAN)", "setting": "[6]", "value": "0.10 % of injected dose per gram of"}, {"measurement": "biodistribution, Fat (MEAN)", "setting": "[6]", "value": "5.01 % of injected dose per gram of"}, {"measurement": "biodistribution, Heart (MEAN)", "setting": "[6]", "value": "0.64 % of injected dose per gram of"}, {"measurement": "biodistribution, Intestine (MEAN)", "setting": "[6]", "value": "0.62 % of injected dose per gram of"}, {"measurement": "biodistribution, Kidney (MEAN)", "setting": "[6]", "value": "0.66 % of injected dose per gram of"}, {"measurement": "biodistribution, Liver (MEAN)", "setting": "[6]", "value": "0.75 % of injected dose per gram of"}, {"measurement": "biodistribution, Lungs (MEAN)", "setting": "[6]", "value": "0.88 % of injected dose per gram of"}, {"measurement": "biodistribution, Muscle (MEAN)", "setting": "[6]", "value": "0.28 % of injected dose per gram of"}, {"measurement": "biodistribution, Ovary (MEAN)", "setting": "[6]", "value": "3.04 % of injected dose per gram of"}, {"measurement": "biodistribution, Pancreas (MEAN)", "setting": "[6]", "value": "0.50 % of injected dose per gram of"}, {"measurement": "biodistribution, Salivary glands (MEAN)", "setting": "[6]", "value": "1.16 % of injected dose per gram of"}, {"measurement": "biodistribution, Spleen (MEAN)", "setting": "[6]", "value": "0.75 % of injected dose per gram of"}, {"measurement": "biodistribution, Uterus (MEAN)", "setting": "[6]", "value": "1.00 % of injected dose per gram of"}, {"measurement": "biodistribution, Fat (MEAN)", "setting": "[7]", "value": "2.42 % of injected dose per gram of"}, {"measurement": "biodistribution, Kidney (MEAN)", "setting": "[7]", "value": "0.40 % of injected dose per gram of"}]}
